Laboratory results as given in ChEMBL document CHEMBL3879901, “Substituted isoquinolin-1(2H)-ones, and methods of use thereof” (2012).
Calls of active or inactive are those of the source. No cut-off for these calls is given here.

How the values were obtained:
[1] = organism: Homo sapiens; assay: Inhibition of allergen-induced activation of basophilic granulocytes in human whole blood preincubated for 20 mins followed by allergen induction measured after 20 mins using sub micromolar range of compound by basotest assay; assay type: functional, tissue-based
[2] = test system: Rattus norvegicus; assay: Antiarthritic activity in type 2 collagen-induced po dosed Lewis rat arthritis model assessed as reduction in knee inflammation administered every 12 hrs for 16 days measured on day 17 of post last dose by toluidine blue staining-based assay; assay type: functional, organism-based
[3] = test system: Rattus norvegicus; assay: Antiarthritic activity in type 2 collagen-induced po dosed Lewis rat arthritis model assessed as reduction in bone resorption in knee administered every 12 hrs for 16 days measured on day 17 of post last dose by toluidine blue staining-based assay; assay type: functional, organism-based
[4] = test system: Rattus norvegicus; assay: Antiarthritic activity in type 2 collagen-induced po dosed Lewis rat arthritis model assessed as reduction in cartilage damage in knee administered every 12 hrs for 16 days measured on day 17 of post last dose by toluidine blue staining-based assay; assay type: functional, organism-based
[5] = test system: Rattus norvegicus; assay: Antiarthritic activity in type 2 collagen-induced Lewis rat arthritis model assessed as reduction in ankle diameter at 10 to 60 mg/kg, po administered every 12 hrs for 16 days measured on day 9 of compound dosing to day 17 of post last dose relative to vehicle-treated control; assay type: functional, organism-based
[6] = target: PI3K p110 beta/p85 alpha (Homo sapiens, UniProt P42338); assay: Inhibition of N-terminal His6-tagged recombinant full-length human p110beta/untagged recombinant full length p85alpha expressed in baculovirus infected Sf21 cells using phosphatidylinositol as substrate in presence of gamma-32P-ATP after 5 mins by thin layer chromatographic method
[7] = test system: Rattus norvegicus; assay: Antiarthritic activity in type 2 collagen-induced Lewis rat arthritis model assessed as reduction in serum anti-type 2 collagen levels at 60 mg/kg, po administered every 12 hrs for 16 days measured on day 17 of post last dose by ELISA relative to control; assay type: functional; set-up: scale not given: the % may be the effect or the level left
[8] = test system: Rattus norvegicus; assay: Antiarthritic activity in type 2 collagen-induced po dosed Lewis rat arthritis model assessed as reduction in knee pannus administered every 12 hrs for 16 days measured on day 17 of post last dose by toluidine blue staining-based assay; assay type: functional, organism-based
[9] = target: RAC-alpha serine/threonine-protein kinase (Mus musculus) (UniProt P31750); assay: […] of anti-CD3-stimulated Akt phosphorylation in mouse unfractionated splenocytes preincubated for 15 mins followed by anti-CD3 stimulation measured after 5 to 15 mins by phosflow method; assay type: cell-based
[10] = target: RAC-alpha serine/threonine-protein kinase (Homo sapiens) (UniProt P31749); assay: […] of anti-CD3-stimulated Akt phosphorylation in human PBMC preincubated for 15 mins followed by anti-CD3 stimulation measured after 5 to 15 mins by phosflow method
[11] = target: Phosphatidylinositol 3-kinase (Mus musculus) (UniProt P26450+P42337); assay: Inhibition of PI3K in mouse unfractionated splenocytes assessed as decrease in anti-CD3-stimulated Akt phosphorylation at S473 preincubated for 15 mins followed by anti-CD3 stimulation measured after 5 to 15 mins by phosflow method; assay type: cell-based
[12] = target: PI3-kinase class I (Homo sapiens) (UniProt P27986+P42338+P48736+P42336+O00459+O00329+Q8WYR1+Q92569); assay: Inhibition of PI3K in human PBMC assessed as decrease in anti-CD3-stimulated Akt phosphorylation at S473 preincubated for 15 mins followed by anti-CD3 stimulation measured after 5 to 15 mins by phosflow method
[13] = target: PI3-kinase p110-delta/p85-alpha (Homo sapiens, UniProt O00329); assay: Inhibition of N-terminal His6-tagged recombinant full-length human p110delta/untagged recombinant full length p85alpha expressed in baculovirus infected Sf21 cells using phosphatidylinositol as substrate in presence of gamma-32P-ATP after 5 mins by thin layer chromatographic method
[14] = Antiproliferative activity against Balb/c mouse splenic B cells preincubated for 30 mins followed by LPS or F(ab')2 donkey anti-mouse IgM and recombinant mouse IL4 stimulation measured after 72 hrs by Alamar Blue reduction assay; assay type: functional, cell-based
[15] = target: PI3-kinase p110-alpha/p85-alpha (Homo sapiens, UniProt P42336); assay: Inhibition of N-terminal His6-tagged recombinant full-length human p110alpha/untagged recombinant full length human p85alpha expressed in baculovirus infected Sf21 cells using phosphatidylinositol as substrate in presence of gamma-32P-ATP after 5 mins by thin layer chromatographic method
[16] = target: Phosphatidylinositol 4,5-bisphosphate 3-kinase catalytic subunit gamma isoform (Homo sapiens, UniProt P48736); assay: Inhibition of recombinant human C-terminal His6-tagged p110gamma expressed in insect cells using phosphatidylinositol as substrate in presence of gamma-32P-ATP after 5 mins by thin layer chromatographic method
Phosphatidylinositol 4,5-bisphosphate 3-kinase catalytic subunit gamma isoform, sequence (P48736 whole entry, canonical isoform): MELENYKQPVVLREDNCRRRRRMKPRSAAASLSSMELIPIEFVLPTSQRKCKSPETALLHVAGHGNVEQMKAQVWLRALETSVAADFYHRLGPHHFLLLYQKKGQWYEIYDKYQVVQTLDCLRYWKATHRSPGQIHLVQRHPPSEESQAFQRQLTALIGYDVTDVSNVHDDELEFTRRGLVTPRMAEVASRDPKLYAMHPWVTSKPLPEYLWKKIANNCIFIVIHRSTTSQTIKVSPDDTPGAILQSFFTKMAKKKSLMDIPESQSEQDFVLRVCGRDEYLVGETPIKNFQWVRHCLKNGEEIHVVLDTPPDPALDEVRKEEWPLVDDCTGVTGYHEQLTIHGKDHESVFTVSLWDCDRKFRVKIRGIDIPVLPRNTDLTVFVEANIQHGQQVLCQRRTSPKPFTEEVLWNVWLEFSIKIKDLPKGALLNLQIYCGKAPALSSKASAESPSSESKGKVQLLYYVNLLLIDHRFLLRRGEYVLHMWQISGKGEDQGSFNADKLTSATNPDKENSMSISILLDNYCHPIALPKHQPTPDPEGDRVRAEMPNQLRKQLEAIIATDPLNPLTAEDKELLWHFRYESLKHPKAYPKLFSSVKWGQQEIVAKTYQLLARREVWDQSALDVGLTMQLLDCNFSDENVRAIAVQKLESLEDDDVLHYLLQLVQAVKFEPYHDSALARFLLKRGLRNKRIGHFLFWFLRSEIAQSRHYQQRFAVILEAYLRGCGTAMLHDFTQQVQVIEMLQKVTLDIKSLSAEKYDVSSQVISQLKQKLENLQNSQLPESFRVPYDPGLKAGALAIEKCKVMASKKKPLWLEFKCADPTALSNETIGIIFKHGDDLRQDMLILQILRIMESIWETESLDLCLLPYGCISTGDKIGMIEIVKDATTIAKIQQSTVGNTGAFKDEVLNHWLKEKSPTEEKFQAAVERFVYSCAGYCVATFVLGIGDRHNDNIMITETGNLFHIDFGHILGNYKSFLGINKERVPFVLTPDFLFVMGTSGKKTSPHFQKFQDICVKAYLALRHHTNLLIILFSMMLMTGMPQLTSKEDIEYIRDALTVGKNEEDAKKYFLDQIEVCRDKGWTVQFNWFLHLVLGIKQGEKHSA

PI3-kinase p110-alpha/p85-alpha, sequence (P27986 whole entry, canonical isoform): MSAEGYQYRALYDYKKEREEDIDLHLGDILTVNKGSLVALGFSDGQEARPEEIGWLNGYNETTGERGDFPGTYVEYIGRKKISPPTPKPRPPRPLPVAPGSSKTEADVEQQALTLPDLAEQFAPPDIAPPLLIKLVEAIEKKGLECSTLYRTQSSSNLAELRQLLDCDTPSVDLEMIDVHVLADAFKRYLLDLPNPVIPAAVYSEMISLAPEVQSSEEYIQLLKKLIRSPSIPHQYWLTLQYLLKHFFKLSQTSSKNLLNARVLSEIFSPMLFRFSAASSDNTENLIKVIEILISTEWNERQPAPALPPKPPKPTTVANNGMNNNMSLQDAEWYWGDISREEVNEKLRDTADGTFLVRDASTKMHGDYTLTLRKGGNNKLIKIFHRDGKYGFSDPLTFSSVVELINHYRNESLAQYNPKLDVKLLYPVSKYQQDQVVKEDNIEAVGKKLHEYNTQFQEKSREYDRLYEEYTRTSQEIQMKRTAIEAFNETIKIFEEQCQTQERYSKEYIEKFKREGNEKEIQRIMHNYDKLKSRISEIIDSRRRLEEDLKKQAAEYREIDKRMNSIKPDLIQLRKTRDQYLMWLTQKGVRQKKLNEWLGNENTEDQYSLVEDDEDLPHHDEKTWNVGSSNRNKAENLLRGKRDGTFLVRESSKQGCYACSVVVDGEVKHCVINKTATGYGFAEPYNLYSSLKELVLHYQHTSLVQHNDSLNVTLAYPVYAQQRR
PI3-kinase p110-alpha/p85-alpha, sequence (P42336 whole entry, canonical isoform): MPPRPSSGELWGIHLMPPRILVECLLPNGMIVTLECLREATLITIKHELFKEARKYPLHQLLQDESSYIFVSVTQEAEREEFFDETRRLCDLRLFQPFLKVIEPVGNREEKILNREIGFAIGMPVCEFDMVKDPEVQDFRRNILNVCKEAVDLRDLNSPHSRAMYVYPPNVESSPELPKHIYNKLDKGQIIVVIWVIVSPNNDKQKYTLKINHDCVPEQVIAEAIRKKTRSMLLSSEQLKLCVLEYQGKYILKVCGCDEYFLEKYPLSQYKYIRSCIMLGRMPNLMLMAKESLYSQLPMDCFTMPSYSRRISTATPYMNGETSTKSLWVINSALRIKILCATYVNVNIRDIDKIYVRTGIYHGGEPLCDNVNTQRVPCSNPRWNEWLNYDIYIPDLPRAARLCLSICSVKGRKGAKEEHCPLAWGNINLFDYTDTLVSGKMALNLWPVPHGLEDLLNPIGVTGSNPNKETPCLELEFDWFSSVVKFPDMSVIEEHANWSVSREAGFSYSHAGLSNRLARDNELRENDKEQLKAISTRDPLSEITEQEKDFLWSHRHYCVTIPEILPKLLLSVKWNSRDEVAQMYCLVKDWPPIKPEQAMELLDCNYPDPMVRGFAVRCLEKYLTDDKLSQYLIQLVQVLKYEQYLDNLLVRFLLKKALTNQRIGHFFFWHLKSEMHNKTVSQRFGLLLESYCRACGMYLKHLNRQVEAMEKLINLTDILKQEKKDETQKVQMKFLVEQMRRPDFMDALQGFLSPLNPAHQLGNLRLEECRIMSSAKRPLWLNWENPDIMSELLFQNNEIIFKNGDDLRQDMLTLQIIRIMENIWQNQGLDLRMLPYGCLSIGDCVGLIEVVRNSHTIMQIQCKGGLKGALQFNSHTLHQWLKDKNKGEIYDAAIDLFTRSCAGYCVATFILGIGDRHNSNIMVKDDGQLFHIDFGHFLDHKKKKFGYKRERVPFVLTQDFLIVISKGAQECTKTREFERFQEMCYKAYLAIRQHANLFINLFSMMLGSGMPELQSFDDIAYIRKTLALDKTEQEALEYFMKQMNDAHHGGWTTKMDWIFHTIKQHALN
PI3K p110 beta/p85 alpha, sequence (P27986 whole entry): as the sequence (P27986 whole entry, canonical isoform) above
PI3K p110 beta/p85 alpha, sequence (P42338 whole entry): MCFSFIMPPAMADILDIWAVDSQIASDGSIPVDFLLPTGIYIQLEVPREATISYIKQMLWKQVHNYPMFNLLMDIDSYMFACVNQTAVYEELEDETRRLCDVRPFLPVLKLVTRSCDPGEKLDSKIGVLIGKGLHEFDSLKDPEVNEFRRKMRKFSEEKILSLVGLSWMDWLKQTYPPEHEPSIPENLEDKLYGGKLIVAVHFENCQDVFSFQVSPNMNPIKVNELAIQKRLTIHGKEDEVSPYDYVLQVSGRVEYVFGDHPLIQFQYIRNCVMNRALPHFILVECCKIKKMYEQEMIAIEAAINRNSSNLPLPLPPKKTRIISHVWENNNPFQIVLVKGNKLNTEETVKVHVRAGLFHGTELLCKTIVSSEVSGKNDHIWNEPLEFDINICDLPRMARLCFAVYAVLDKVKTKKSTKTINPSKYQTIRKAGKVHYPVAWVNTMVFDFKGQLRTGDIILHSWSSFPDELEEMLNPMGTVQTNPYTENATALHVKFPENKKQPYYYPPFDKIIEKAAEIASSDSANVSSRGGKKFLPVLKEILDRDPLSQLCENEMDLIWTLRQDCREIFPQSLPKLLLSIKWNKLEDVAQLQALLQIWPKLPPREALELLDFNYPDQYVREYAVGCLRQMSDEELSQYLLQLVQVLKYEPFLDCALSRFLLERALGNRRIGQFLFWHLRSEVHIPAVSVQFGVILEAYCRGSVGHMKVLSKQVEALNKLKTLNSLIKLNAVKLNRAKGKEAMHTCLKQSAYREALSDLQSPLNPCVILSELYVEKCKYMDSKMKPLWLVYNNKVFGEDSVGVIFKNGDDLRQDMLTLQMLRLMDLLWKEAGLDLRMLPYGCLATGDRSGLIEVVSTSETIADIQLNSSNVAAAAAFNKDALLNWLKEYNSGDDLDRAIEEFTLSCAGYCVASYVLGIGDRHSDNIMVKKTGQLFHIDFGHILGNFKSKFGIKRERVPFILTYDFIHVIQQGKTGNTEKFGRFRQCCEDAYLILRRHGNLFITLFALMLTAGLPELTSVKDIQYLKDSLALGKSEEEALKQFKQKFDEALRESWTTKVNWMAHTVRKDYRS
PI3-kinase p110-delta/p85-alpha, sequence (P27986 whole entry): as the sequence (P27986 whole entry, canonical isoform) above
PI3-kinase p110-delta/p85-alpha, sequence (O00329 whole entry): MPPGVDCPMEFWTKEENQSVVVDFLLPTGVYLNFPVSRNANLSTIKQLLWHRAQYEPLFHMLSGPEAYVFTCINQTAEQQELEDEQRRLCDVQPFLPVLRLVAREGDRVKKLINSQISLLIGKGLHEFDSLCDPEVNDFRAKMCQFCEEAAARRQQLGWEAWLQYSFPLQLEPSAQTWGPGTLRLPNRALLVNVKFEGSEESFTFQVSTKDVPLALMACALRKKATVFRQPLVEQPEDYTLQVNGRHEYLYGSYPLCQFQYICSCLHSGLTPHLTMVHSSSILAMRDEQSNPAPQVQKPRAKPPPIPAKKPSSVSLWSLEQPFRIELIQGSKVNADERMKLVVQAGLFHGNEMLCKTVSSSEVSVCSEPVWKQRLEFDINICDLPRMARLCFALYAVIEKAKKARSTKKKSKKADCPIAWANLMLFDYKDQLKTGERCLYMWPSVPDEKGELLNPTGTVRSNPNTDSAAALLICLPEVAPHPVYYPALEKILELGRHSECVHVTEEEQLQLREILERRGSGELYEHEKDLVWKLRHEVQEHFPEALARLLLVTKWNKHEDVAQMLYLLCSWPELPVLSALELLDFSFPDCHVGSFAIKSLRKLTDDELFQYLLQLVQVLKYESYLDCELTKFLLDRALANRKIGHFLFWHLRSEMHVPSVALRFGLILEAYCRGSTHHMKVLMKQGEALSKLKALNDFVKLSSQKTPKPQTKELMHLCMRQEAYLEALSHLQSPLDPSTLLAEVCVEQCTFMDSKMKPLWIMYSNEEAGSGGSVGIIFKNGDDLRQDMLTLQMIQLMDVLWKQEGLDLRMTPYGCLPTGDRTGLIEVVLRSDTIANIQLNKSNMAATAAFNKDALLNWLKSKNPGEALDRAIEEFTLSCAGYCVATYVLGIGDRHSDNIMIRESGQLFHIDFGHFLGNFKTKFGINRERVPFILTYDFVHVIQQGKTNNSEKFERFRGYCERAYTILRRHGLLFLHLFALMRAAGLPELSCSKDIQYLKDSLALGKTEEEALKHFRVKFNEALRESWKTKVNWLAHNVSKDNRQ

Structure (SMILES)	IC50 [6]	IC50 [13]	EC50 [14]	IC50 [15]	IC50 [16]	further results
Cc1ccccc1-n1c(Cn2nc(-c3cc(O)cc(F)c3)c3c(N)ncnc32)cc2cccc(C)c2c1=O	< 1000 nM	–	–	–	–	inhibition [1]: Active; Activity [2]: Dose-dependent effect; Activity [3]: Dose-dependent effect; Activity [4]: Dose-dependent effect; Activity [5]: Active; Activity [7]: 24%; Activity [8]: Dose-dependent effect
CO[C@H]1C[C@@H]2CC[C@@H](C)[C@@](O)(O2)C(=O)C(=O)N2CCCC[C@H]2C(=O)O[C@H]([C@H](C)C[C@@H]2CC[C@@H](O)[C@H](OC)C2)CC(=O)[C@H](C)/C=C(\C)[C@@H](O)[C@@H](OC)C(=O)[C@H](C)C[C@H](C)/C=C/C=C/C=C/1C	–	–	–	–	–	Activity [9]: Active; Activity [10]: Active; inhibition [11]: Active; inhibition [12]: Active
Cc1cccnc1-n1c(Cn2nc(-c3cc(O)cc(F)c3)c3c(N)ncnc32)cc2ccccc2c1=O	> 10000 nM	< 100 nM	< 100 nM	> 10000 nM	< 1000 nM	–
COc1cccc(-c2nn(Cc3cc4cccc(C)c4c(=O)n3-c3ccccc3C)c3ncnc(N)c23)c1	< 10000 nM	< 1000 nM	< 1000 nM	> 10000 nM	< 1000 nM	–
Cc1cccc2cc(Cn3nc(C#C[C@@H](C)O)c4c(N)ncnc43)n(C3CC3)c(=O)c12	< 1000 nM	< 100 nM	< 1000 nM	> 10000 nM	< 1000 nM	–
Cc1cccc2cc(Cn3nc(-c4ccc(F)c(O)c4)c4c(N)ncnc43)n(-c3ccccc3F)c(=O)c12	> 10000 nM	< 100 nM	< 1000 nM	> 10000 nM	< 1000 nM	–
Cc1cccc2cc(Cn3nc(Br)c4c(N)ncnc43)n(-c3ccccc3F)c(=O)c12	> 10000 nM	< 1000 nM	< 1000 nM	> 10000 nM	< 10000 nM	–
Cc1cccc2cc(Cn3nc(-c4cccc(O)c4)c4c(N)ncnc43)n(-c3ccccc3F)c(=O)c12	> 10000 nM	< 100 nM	< 1000 nM	> 10000 nM	< 1000 nM	–
